# According to patent publication US20060069038A1, “Irreversible caspase-3 inhibitors as active site probes” (priority 2003, published 2006):
# Where two headings read alike, the source gives them in different places.
# Tests used:
# [1] = target: T1, purified recombinant human caspase-3 (Homo sapiens, UniProt P42574); test: Caspase inhibitor titration by [125I]-M808 labeling of purified recombinant human caspase-3 (SDS-PAGE); type: binding
# T1 construct: Active site shared between large and small caspase subunit
# T1 sequence (P42574 29-175 limits assumed): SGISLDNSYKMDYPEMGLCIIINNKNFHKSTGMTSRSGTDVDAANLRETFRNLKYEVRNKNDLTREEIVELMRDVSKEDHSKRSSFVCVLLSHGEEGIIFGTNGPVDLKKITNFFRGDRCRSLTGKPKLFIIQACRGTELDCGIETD
# T1 sequence (P42574 176-277 limits assumed): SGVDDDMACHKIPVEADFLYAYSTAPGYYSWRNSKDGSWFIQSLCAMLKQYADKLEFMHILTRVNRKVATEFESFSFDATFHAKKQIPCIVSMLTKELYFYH
# Description: FIG. 3. Potency assessment caspase inhibitors by [^125]-M808 labeling and by DEVD-AMC cleavage activity. A, B-Caspase inhibitor titration and [^125]-M808 labeling with purified recombinant human caspase-3. A-M791 with 5 minute labeling reaction and M791 with 60 minute labeling reaction. In A, the indicated IC50 was defined as the concentration of M791 that reduced the intensity of [^125I]-M808-labeled p17 subunit of caspase-3 by 50%. B-Caspase inhibitor titration and DEVD-AMC cleavage activity with recombinant human caspase-3 that had been incubated with indicated concentration of M791. Under the fluorogenic assay conditions Ki=IC50/2.
# The determination of caspase activity by [^125I]-M808 labeling was performed by pre-incubating purified recombinant human caspase-3 with indicated amounts of caspase inhibitor (M791) or vehicle (DMSO), for 1 hour at 25° C. in ICE buffer III (50 mM Hepes-KOH pH 7.0, 0.1% CHAPS, 10% sucrose, 2 mM EDTA), supplemented with 5 mM DTT. [^125I]-M808 was added to a final concentration of 1.25 μM and incubated for 5 min at 25° C. Active caspases in tissue or cell extracts were labeled by incubating 60-80 μg of lysate with [^125I]-M808 for 15 minutes at 25° C. Labeling was stopped by addition of Laemli buffer (2% SDS; 0.35 M O-mercaptoethanol; 50 mM Tris-Cl pH 6.8; 10% glycerol; 0.05% bromophenol blue) and by heating at 95° C. for 5 minutes. […]
# rat thymocytes = test: DNA fragmentation (flow cytometry) in cultured rat thymocytes; type: cell-based; details: for IC50: Rattus norvegicus, Thymocyte
# Description: Rat thymocytes were cultured for 24 hours at a density of 10×10^6 cells/ml in CytoSF4 supplemented with 2 mM L-glutamine and penicillin-streptamycin and the indicated concentration of caspase inhibitors.
# DNA fragmentation was determined by flow cytometry on 1.5×10^6 thymocytes or 500,000 Jurkat cells fixed for 30 min on ice in 80% EtOH. The cells were pelleted by centrifugation at 300 g for 10 min, suspended in PBS and incubated on ice for 45 min. […] Several dilutions were prepared for each sample to ensure that signal would be found within the assays linear range.
SMILES,"IC50 ([1]; [125I]-M808 added for 5 minutes, read-out: IC50 by [125I]-M808 labeling (50% reduction of labeled p17 subunit)) [nM]","IC50 ([1]; incubating with [125I]-M808 for 60 minutes instead of 5, read-out: apparent IC50 by [125I]-M808 labeling) [nM]","IC50 (rat thymocytes; cultured rat thymocytes, experiment of FIG. 5, read-out: IC50, inhibition of DNA fragmentation) [nM]","IC50 (rat thymocytes; cultured thymocytes, N. Methot et al., in press, p<0.01 vs spectrin cleavage, read-out: IC50, inhibition of DNA fragmentation) [nM]","IC50 (rat thymocytes; five independent experiments, read-out: DNA fragmentation IC50) [nM]",M867 required to inhibit DNA fragmentation compared to spectrin cleavage (rat thymocytes; ratio of IC50s)
"COc1ccc(-c2nc(C)no2)cc1CC(=O)N[C@H](C(=O)N[C@@H](CC(=O)O)C(=O)CSCc1ccccc1)C(C)C [Example M791, (3S)-5-(benzylthio)-3-[(N-{[2-methoxy-5-(3-methyl-1,2,4-oxadiazol-5-yl)phenyl]acetyl}-L-valyl)amino]4-oxopentanoic acid]",0.45,1,–,–,–,–
"CCCCCN(C)CC(=O)[C@H](CC(=O)O)NC(=O)[C@H](CC)n1cc(C(C)(C)C)nc(NCc2nonc2C)c1=O [Example M867, (3S)-3-({(2S)-2-[5-tert-butyl-3-{[(4-methyl-1,2,5-oxadiazol-3-yl)methyl]amino}-2-oxopyrazin-1(2H)-yl]butanoyl}amino)-5-[methyl(pentyl)amino]-4-oxopentanoic acid]",–,–,240,270,270,Three-fold
